Molecules are shown by their SMILES. pEC50, pKi: −log10 of the molar value.

In assay [1] the target is T1, c-IAP1 (Homo sapiens, UniProt Q13490).
T1 construct: GST (N); made in house; host or cells: E. coli DH5α
The assay is described as follows: Fluorescence polarization-based competition assay, c-IAP1. In kind it is binding. Conditions: FP assay, ki derived from IC50. In a few lines: (§1)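 Competition of FITC-labelled probe (2 nM) binding to the BIR domain, protein set at 80% of maximal FP signal; 10-point compound dilutions in 50 mM HEPES pH 7.5, γ-globulin, 2 mM DTT, 1% DMSO, 1 h at room temperature in the dark. IC50 from sigmoidal fit; Ki derived from IC50.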
In general terms: Fluorescence polarisation rises when a labelled molecule tumbles more slowly, as on binding a larger partner.

The test system of assay [2] is Colorectal carcinoma HCT116 cells. The assay is described as follows: Cell death assay (MTT) in combination with HGS ETR1. The format is cell-based. Conditions: with HGS ETR1 30 ng/ml, 72 hours, read-out: HCT116+ mapatubimap EC50. In a few lines: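 HCT116 cells (2000/well, McCoy's 5a, 10% FBS) were treated 24 h after plating with compound plus the agonistic TRAIL receptor antibody mapatumumab (ETR1, 30 ng/ml) for 72 hours. Viability was read by MTT. EC50 was the concentration giving 50% survival relative to untreated controls.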

In assay [3] the target is T2, XIAP (Homo sapiens, UniProt P98170).
T2 construct: fused on or other part: GST tag at the N-terminus (pGEX4T vectors)
T2 sequence (P98170 246-497 limits assumed): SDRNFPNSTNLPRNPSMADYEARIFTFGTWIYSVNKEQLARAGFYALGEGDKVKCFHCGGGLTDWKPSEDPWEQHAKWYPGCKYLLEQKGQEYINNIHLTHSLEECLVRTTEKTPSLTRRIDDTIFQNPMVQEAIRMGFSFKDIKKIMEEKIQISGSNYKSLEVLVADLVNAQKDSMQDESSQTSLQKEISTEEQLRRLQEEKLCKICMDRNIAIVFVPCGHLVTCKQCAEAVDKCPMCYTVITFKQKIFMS
The assay is described as follows: Fluorescence polarization-based competition assay, XIAP. Conditions: FP assay, ki derived from IC50. The format is binding. The essentials: as §1

Assay [4] has as its target T3, cIAP2 (Homo sapiens, UniProt Q13489).
T3 construct: GST (N); made in house; host or cells: E. coli DH5α
The assay is described as follows: Fluorescence polarization-based competition assay, cIAP2. The format is binding. Conditions: FP assay, ki derived from IC50. On the procedure:
Binding of compounds of Formula 1 to target BIR domains was measured using a fluorescence-polarization (FP) assay. Fluorescence-polarization was evaluated using a GENios microplate reader (TECAN) Pro instrument with the excitation filter set at 485 nm and the emission filter set at 535 nm. The final amount of protein used in the assay corresponds to the amount of protein necessary to obtain 80% of the maximum FP value in a P1 or P2 fluorescent (FITC) probe saturation experiment. The compounds potency (IC50) and selectivity, was assessed in the presence of the amount of target protein established, fluorescent probe, and a 10 point serial dilution in assay buffer (50 mM Hepes, pH 7.5, 250 mcg/mL γ-globulin, 2 mM DTT, 1% DMSO) of the selected compounds.
Assays were carried out in duplicate using untreated black 96-well plates (Corning #3915) and a total volume of 100 microliters, containing 25 microliters of fluorescent probe at a final concentration of 2 nM in assay buffer, 25 microliters of diluted compound, 25 microliters of BIR protein into assay buffer and 25 microliters of assay buffer. Buffer only (blank) or probe only in buffer (G-factor) were used as controls for calibration. The plate was incubated at room temperature in the dark for one hour and FP values in millipolarization units (mP) were recorded using Genios Pro FP reader.
The measured FP values (mP) were then plotted against compound concentration, and IC50 values were calculated based on a sigmoidal dose-response (variable-slope) curve fit using GraphPad Prism version 4.02 for Windows, GraphPad Software, San Diego Calif. USA and/or CambridgeSoft BioAssay Enterprise Version 10.1. The IC50 value is the concentration of test compound at which 50% of the tracer was displaced. ki values were derived from the calculated IC50 values as described above and according to the equation described in Nikolovska-Coleska, Z. (2004) Anal Biochem 332, 261-273. The results are presented in Table 2, wherein A=less than 25 nM; B=less than 250 nM; C=less than 1000 nM; and D=greater than 1000 nM.

T3 sequence (Q13489 236-349): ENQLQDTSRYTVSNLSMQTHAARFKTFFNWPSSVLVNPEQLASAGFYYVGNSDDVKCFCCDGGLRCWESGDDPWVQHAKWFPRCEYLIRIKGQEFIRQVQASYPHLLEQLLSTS
T1 sequence (Q13490 251-363): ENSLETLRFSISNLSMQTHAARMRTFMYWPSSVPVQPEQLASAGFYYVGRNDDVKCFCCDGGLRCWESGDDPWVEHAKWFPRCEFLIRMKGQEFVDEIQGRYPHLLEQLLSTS

What is called pKi is −log10 of the Ki, conventionally taken in molar units. What is called pEC50 is the negative decadic logarithm of the EC50, by convention in mol/L. As to `CCO[C@H](C)[C@H](NC(=O)[C@H](C)NC)C(=O)N1CCC[C@H]1CN(CCc1ccc(F)cc1)C(=O)c1cn2ccccc2n1` [Compound 78], the pKi in assay [1] is above 7.60; in assay [3] it was above 6.60; in assay [4] it was above 7.60. Besides, the pEC50 in assay [2] was above 7.30.
As for `CN[C@@H](C)C(=O)N[C@H](C(=O)N1CCC[C@H]1CN(CCc1ccc(F)cc1)C(=O)c1cn(C(C)C)cn1)C(C)(C)C` [Compound 94], the values for the pKi in assay [1], in assay [3] and in assay [4] were above 7.60, above 6.60 and above 7.60, respectively. For the same molecule, in assay [2], the pEC50 was above 7.30.
Consider `CN[C@@H](C)C(=O)N[C@H](C(=O)N1C[C@@H](Oc2ccc(OC)cc2)C[C@H]1CN(CCc1ccc(F)cc1)C(=O)c1cn(C)cn1)C(C)(C)C` [Compound 96], for which the pKi was above 7.60 in assay [1], above 6.60 in assay [3] and above 7.60 in assay [4]. For the same molecule, in assay [2], the pEC50 was above 7.30.
Regarding `CCN[C@@H](C)C(=O)N[C@H](C(=O)N1CCC[C@H]1CN(CCc1ccccc1)C(=O)c1cn2cccnc2n1)C1CCCCC1` [Compound 2], the pKi in assay [1] was above 6.60; in assay [3], below 6.00; in assay [4] it was above 6.60. For the same molecule, in assay [2], the pEC50 was above 6.00.
Take `CN[C@@H](C)C(=O)N[C@H](C(=O)N1C[C@@H](Oc2ccc(F)cc2)C[C@H]1CN(CCc1ccc(F)cc1)C(=O)c1cn2cc(F)cnc2n1)C(C)(C)C` [Compound 116]: the pKi in assay [1], in assay [3] and in assay [4] was above 7.60 throughout. In assay [2], the pEC50 was above 7.30.
Turning to `CN[C@@H](C)C(=O)N[C@H](C(=O)N1CCC[C@H]1CN(CCc1ccc(F)cc1)C(=O)c1cc2ccccn2c1)C(C)(C)C` [Compound 68], the pKi in assay [1] was above 7.60; in assay [3] it was above 6.60; in assay [4], above 7.60. Further, the pEC50 in assay [2] is above 6.60.
For the molecule `CN[C@@H](C)C(=O)N[C@H](C(=O)N1C[C@@H](Oc2ccc(F)cc2)C[C@H]1CN(CCc1ccc(F)cc1)C(=O)c1cn(C)cn1)[C@@H](C)OC` [Compound 99], the pKi is above 7.60 in assay [1], above 6.60 in assay [3] and above 7.60 in assay [4]. For the same molecule, in assay [2], the pEC50 was above 7.30.
In the case of `CN[C@@H](C)C(=O)N[C@H](C(=O)N1CCC[C@H]1CN(CCc1cccc(F)c1)C(=O)c1cn2cccnc2n1)C(C)(C)C` [Compound 12], the pKi is above 7.60 in assay [1], above 6.00 in assay [3] and above 6.60 in assay [4]. Also, the pEC50 in assay [2] was above 6.60.
As for `CN[C@@H](C)C(=O)N[C@H](C(=O)N1CCC[C@H]1CN(CCc1ccc(F)cc1)C(=O)c1cn2cc(F)cnc2n1)[C@@H](C)OC` [Compound 74], the pKi in assay [1] was above 7.60; in assay [3], above 6.60; in assay [4] it was above 7.60. In addition, in assay [2], the pEC50 was above 7.30.
As to `CN[C@@H](C)C(=O)N[C@H](C(=O)N1CCC[C@H]1CN(CCc1ccc(F)cc1)C(=O)c1cn2cccnc2n1)C1CCCCC1` [Compound 20], the results for the pKi in assay [1], in assay [3] and in assay [4] were above 7.60, above 6.60 and above 7.60, respectively. Moreover, the pEC50 in assay [2] was above 7.30.
As for `CN[C@@H](C)C(=O)N[C@H](C(=O)N1C[C@@H](Oc2ccc(F)cc2)C[C@H]1CN(CCc1ccc(F)cc1)C(=O)c1cn2cc(F)cnc2n1)[C@@H](C)OC` [Compound 107], the results for the pKi in assay [1], in assay [3] and in assay [4] were above 7.60, above 6.60 and above 7.60, respectively. For the same molecule, the pEC50 in assay [2] was above 7.30.
As for `CN[C@@H](C)C(=O)N[C@H](C(=O)N1C[C@@H](NC(=O)c2ccccc2)C[C@H]1CN(CCc1ccc(F)cc1)C(=O)c1cn2cccnc2n1)C(C)(C)C` [Compound 49], the pKi was above 7.60 in assay [1], above 6.00 in assay [3] and above 7.60 in assay [4]. Besides, the pEC50 in assay [2] is above 6.60.
As for `CN[C@@H](C)C(=O)N[C@H](C(=O)N1CCC[C@H]1CN(CCc1ccc(F)cc1)C(=O)c1cn2c(n1)CCC2)C1CCCCC1` [Compound 113], the results for the pKi in assay [1], in assay [3] and in assay [4] were above 7.60, above 6.60 and above 7.60, respectively. Also, in assay [2], the pEC50 was above 7.30.
As for `CN[C@@H](C)C(=O)N[C@H](C(=O)N1CCC[C@H]1CN(CCc1ccc(F)cc1)C(=O)c1cc(-c2ccccc2)[nH]n1)C(C)(C)C` [Compound 88], the negative-log Ki (pKi) in assay [1] was above 7.60; in assay [3] it was above 6.60; in assay [4], above 7.60. In addition, the pEC50 in assay [2] is above 6.60.
`CN[C@@H](C)C(=O)N[C@H](C(=O)N1C[C@@H](NS(=O)(=O)c2ccccc2)C[C@H]1CN(CCc1ccc(F)cc1)C(=O)c1cn2cccnc2n1)C(C)(C)C` [Compound 59]: the pKi was above 7.60 in assay [1], above 6.60 in assay [3] and above 7.60 in assay [4]. Further, the pEC50 in assay [2] was above 6.00.
As to `CN[C@@H](C)C(=O)N[C@H](C(=O)N1CCC[C@H]1CN(CCc1ccc(F)cc1)C(=O)c1nnc(-c2ccccc2)o1)C(C)(C)C` [Compound 117], the pKi was above 7.60 in assay [1], above 6.00 in assay [3] and above 7.60 in assay [4]. Further, the pEC50 in assay [2] was above 6.60.
`CN[C@@H](C)C(=O)N[C@H](C(=O)N1CCC[C@H]1CN(CCc1ccc(F)cc1)C(=O)c1cn(C2CCCC2)cn1)C(C)(C)C` [Compound 91]: the pKi was above 7.60 in assay [1], above 6.60 in assay [3] and above 7.60 in assay [4]. Moreover, the pEC50 in assay [2] was above 7.30.
As for `CN[C@@H](C)C(=O)N[C@H](C(=O)N1CCC[C@H]1CN(CCc1ccc(F)cc1)C(=O)c1cn(C)nn1)C1CCCCC1` [Compound 110], the pKi in assay [1] was above 7.60; in assay [3], above 6.60; in assay [4], above 7.60. Also, the pEC50 in assay [2] was above 7.30.
Regarding `CN[C@@H](C)C(=O)N[C@H](C(=O)N1C[C@@H](Oc2ccncc2)C[C@H]1CN(CCc1ccc(F)cc1)C(=O)c1cn2ccccc2n1)C(C)(C)C` [Compound 106], the pKi in assay [1] was above 7.60; in assay [3], above 6.60; in assay [4] it was above 7.60. In assay [2], the pEC50 was above 7.30.
With `CN[C@@H](C)C(=O)N[C@H](C(=O)N1C[C@@H](Oc2ccc(F)cc2)C[C@H]1CN(CCc1ccc(F)cc1)C(=O)c1cn2c(n1)CCC2)C(C)(C)C` [Compound 83], the pKi in assay [1], in assay [3] and in assay [4] was above 7.60 each time. Also, the pEC50 in assay [2] was above 7.30.
With `CN[C@@H](C)C(=O)N[C@H](C(=O)N1CCC[C@H]1CN(CCc1ccc(F)cc1)C(=O)c1cn(C2CCOCC2)cn1)C(C)(C)C` [Compound 95], the pKi in assay [1] was above 7.60; in assay [3], above 6.60; in assay [4] it was above 7.60. Moreover, in assay [2], the pEC50 is above 7.30.
Regarding `CN[C@@H](C)C(=O)N[C@H](C(=O)N1C[C@@H](Oc2ccc(F)cc2)C[C@H]1CN(CCc1ccc(F)cc1)C(=O)c1cn2ccccc2n1)[C@@H](C)OC` [Compound 102], the results for the pKi in assay [1], in assay [3] and in assay [4] were above 7.60, above 6.60 and above 7.60, respectively. Further, the pEC50 in assay [2] was above 7.30.
`CN[C@@H](C)C(=O)N[C@H](C(=O)N1CCC[C@H]1CN(CCc1ccc(F)cc1)C(=O)c1cn2ccccc2n1)C1CCCCC1` [Compound 18]: the pKi was above 7.60 in assay [1], above 6.60 in assay [3] and above 7.60 in assay [4]. Also, the pEC50 in assay [2] was above 7.30.
For the molecule `CN[C@@H](C)C(=O)N[C@H](C(=O)N1CCC[C@H]1CN(CCc1ccc(F)cc1)C(=O)c1cn(-c2ccc(F)cc2)cn1)C(C)(C)C` [Compound 66], the pKi in assay [1] is above 7.60; in assay [3], above 6.60; in assay [4] it was above 7.60. The pEC50 in assay [2] is above 7.30.
As for `CN[C@@H](C)C(=O)N[C@H](C(=O)N1CCC[C@H]1CN(CCc1ccccc1)C(=O)c1cn2cccnc2n1)C(C)(C)C` [Compound 6], the pKi in assay [1] is above 7.60; in assay [3], above 6.60; in assay [4], above 7.60. For the same molecule, the pEC50 in assay [2] is above 6.60.
For `CN[C@@H](C)C(=O)N[C@H](C(=O)N1CCC[C@H]1CN(CCc1ccc(F)cc1)C(=O)c1cn(C)cn1)C1CCCCC1` [Compound 120], the pKi in assay [1] is above 7.60; in assay [3] it was above 6.60; in assay [4] it was above 7.60. Also, the pEC50 in assay [2] was above 7.30.
